Laboratory results reported in paper PMC12606464, “Investigating NFE2L1 activators for targeted protein aggregate clearance: a follow-up study” (RSC Medicinal Chemistry, 2025).
Read-outs that look alike come from different tables or passages of the source.

Legend:
NFE2L1 pathway = assay: 3×PSMA4-ARE-LUC dual luciferase reporter assay in HEK293 cells; format: cell-based, human; conditions: for EC50 / fold induction at 5 µM: Homo sapiens; for EC50: HEK293; for fold induction at 5 µM: 16 h, HEK293, luminescence relative to DMSO-treated cells, read-out: NFE2L1 activation [5 μM]
Summary of the method: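 HEK293 cells carrying the 3×PSMA4-ARE luciferase reporter (with pRL-TK) were treated with compounds for 16 h, then luciferase activity was measured. Values are fold change in luminescence over DMSO-treated cells; EC50 from four-parameter logistic or bell-shaped fits with 1/Y^2 weighting.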

SNCA-EGFP = SNCA-EGFP degradation in SH-SY5Y cells; format: cell-based, human
Description: This reporter is prone to aggregation because of its slow protein turnover. To assess compound efficacy, we measured the fluorescence signal of GFP-tagged synuclein within aggregates.
The GFP fluorescence signal was then normalized to that of the DMSO control and the cell number. The experiment was performed in at least five biological replicates. Statistical analysis was performed using paired t-tests with Holm–Šídák correction for multiple comparisons (α = […]
SH-SY5Y cells stably expressing SNCA-EGFP were seeded on a plate and allowed to […]
tadalafil (5 µM), or RUN compounds at a concentration of 1 µM or treated with an equivalent volume of DMSO dissolved in buffer as a vehicle control. The treatment was performed for 16 hours and then fluorescence was measured. The GFP signal intensity was normalized to both the DMSO control and the cell count.

[1] = PSMA4-ARE-luc2P reporter, four-parameter logistic or bell-shaped model, order of models not stated, read-out: EC50 (first value)
[2] = [Agonist] vs. Response, variable slope (four parameters), weighting 1/Y^2, Fig. S1
[3] = SH-SY5Y, SNCA-EGFP degron, Figure S7
[4] = Bell-shaped fit, X is concentration, weighting 1/Y^2, Fig. S1
[5] = Bell-shaped fit, X is concentration, weighting 1/Y^2, Fig. S1, read-out: EC50_1 (best-fit)
[6] = PSMA4-ARE-luc2P reporter, four-parameter logistic or bell-shaped model, order of models not stated, read-out: EC50

EC50 (NFE2L1 pathway; [1])	EC50 (NFE2L1 pathway; [Agonist] vs. Response, variable slope (four parameters), weighting 1/Y^2, Fig. S1, read-out: EC50 (best-fit))	SMILES	fold induction at 5 µM (NFE2L1 pathway)	Bottom (best-fit) (NFE2L1 pathway; [2])	Hillslope (best-fit) (NFE2L1 pathway; [2])	Span (best-fit) (NFE2L1 pathway; [2])	Top (best-fit) (NFE2L1 pathway; [2])	logEC50 (best-fit) (NFE2L1 pathway; [2])	Geometric mean of ratios (paired t tests, Treatment vs Control = 100) (SNCA-EGFP; [3])	Geometric mean, Treatment (Control = 100) (SNCA-EGFP; [3])	Dip (best-fit) (NFE2L1 pathway; [4])	Plateau1 (best-fit) (NFE2L1 pathway; [4])	Plateau2 (best-fit) (NFE2L1 pathway; [4])	nH1 (best-fit) (NFE2L1 pathway; [4])	nH2 (best-fit) (NFE2L1 pathway; [4])	EC50 (NFE2L1 pathway; [5])	EC50 (NFE2L1 pathway; [6])	Geometric mean of ratios (paired t tests, Treatment vs Control = 100) (SNCA-EGFP)
10.4 µM	–	COc1ccc(/C=C2\CC(N)C/C(=C\c3ccc(OC)c(OC)c3)C2=O)cc1OC (stereo not drawn) [RUN-81]	2.1	0.95	2.70	18.71	19.66	1.02	-11.53	88.47	–	–	–	–	–	–	–	–
3.8 µM	3.79 µM	COc1ccc(/C=C2\CC(NC(=O)c3ccccn3)C/C(=C\c3ccc(OC)c(OC)c3)C2=O)cc1OC (stereo not drawn) [RUN-94]	19.4	1.13	55.77	9.24	10.37	0.58	-7.67	92.33	8.602	-2.174	11.95	Unstable	18.05	3.8 µM	3.8 µM	–

SMILES	EC50 (NFE2L1 pathway; [1])	EC50 (NFE2L1 pathway; [Agonist] vs. Response, variable slope (four parameters), weighting 1/Y^2, Fig. S1, read-out: EC50 (best-fit))	fold induction at 5 µM (NFE2L1 pathway)	Bottom (best-fit) (NFE2L1 pathway; [2])	Hillslope (best-fit) (NFE2L1 pathway; [2])	Span (best-fit) (NFE2L1 pathway; [2])	Top (best-fit) (NFE2L1 pathway; [2])	logEC50 (best-fit) (NFE2L1 pathway; [2])	Geometric mean of ratios (paired t tests, Treatment vs Control = 100) (SNCA-EGFP; [3])	Geometric mean, Treatment (Control = 100) (SNCA-EGFP; [3])	Dip (best-fit) (NFE2L1 pathway; [4])	Plateau1 (best-fit) (NFE2L1 pathway; [4])	Plateau2 (best-fit) (NFE2L1 pathway; [4])	nH1 (best-fit) (NFE2L1 pathway; [4])	nH2 (best-fit) (NFE2L1 pathway; [4])	EC50 (NFE2L1 pathway; [5])	EC50 (NFE2L1 pathway; [6])	Geometric mean of ratios (paired t tests, Treatment vs Control = 100) (SNCA-EGFP)
COc1ccc(/C=C2\CC(NC(=O)C3CCCC3)C/C(=C\c3ccc(OC)c(OC)c3)C2=O)cc1OC (stereo not drawn) [RUN-89]	3.1 µM	–	11.7	1.08	7.14	6.12	7.20	0.49	–	88.39	19.12	1.124	5.392	-4.123	-7.321	4.89 µM	4.9 µM	-11.61
